Where two headings read alike, the source gives them in different places.

Four compounds from patent US5071988A, “Substituted benzoylbenzene-, biphenyl- and 2-oxazole-alkanoic acid derivatives” (American Home Products Corporation, priority 1991, dated 1991) can be followed below.

The test system of experiment [1] is Cellular Influx. Nature of the experiment: reverse passive Arthus pleurisy assay, cellular influx. The settings on record: Rattus norvegicus, po, 4 h, 1 hour prior to anti-BSA; standard drugs. It counts as in vivo, rat (male Lewis). The procedure: (§1) The compounds of the invention are further tested in the reverse passive Arthus pleurisy assay to evaluate their effectiveness in inflammatory mediator release and/or the fluid and cellular phases of an inflammatory response.
(§2) A reverse passive Arthus reaction is induced in the pleural cavity of male Lewis rats (150-200 g; fasted overnight prior to use) by the intravenous administration of bovine serum albumin (BSA; 4 mg/0.2 ml) followed by 30 minutes later by the injection of rabbit anti-BSA (1 mg/0.2 ml; lyophilized IgG fraction; Organon Teknika, West Chester, Pa.) into the right pleural space under halothane anesthesia. Drugs or vehicle (0.5% Tween-80) control are administered orally in a volume of 1 ml/100 g body weight at 1 hour prior to the anti-BSA. Animals are sacrificed at either the time of peak eicosanoid production (i.e. 5 minutes after anti-BSA for immunoreactive TxB2 10 minutes for immunoreactive LTB4, 20 minutes for immunoreactive LTC4) or at the time of peak neutrophil infiltration (4 hours after anti-BSA) by CO2 inhalation. The pleural cavity is then exposed, the fluid exudate removed by gentle vacuum aspiration and the volume of exudate is recorded. For the determination of cellular infiltration, the pleural cavity is rinsed with 3 ml of 0.1% EDTA in sterile saline, and the recovered wash is pooled with the exudate. Cell number is determined on a model ZBI Coulter counter. For determination of eicosanoid production, undiluted pleural exudate is microfuged and the supernatant is extracted with ethanol (8-10 times volume). Extracts are either stored at -20° C., or are evaporated to dryness under a stream of N2 and reconstituted in radioimmunoassay (RIA) buffer.
(§3) Inflammatory cells are expressed as 10^6 cells/ml, pleural exudate is expressed as ml of fluid, and the amount of eicosanoids in the pleural cavity is expressed as ng/ml of exudate. Mean±S.E.M. is determined for each group. Percent inhibition (% I) of cell number, exudate volume and eicosanoid production is calculated for vehicle-treated control groups, and the responses in drug-treated rats are then expressed as the mean % I of the control. […] Exp. Ther., 96, 99-113 (1949).

For experiment [2], the system named is LTB4. Nature of the experiment: reverse passive Arthus pleurisy assay, LTB4. Format: in vivo, rat (male Lewis). As to conditions: Rattus norvegicus, po, 1 hour prior to anti-BSA; standard drugs; read-out: ED50 LTB4. The procedure:
as §1, §2
(§4) Eicosanoids are quantitated by RIA according to the procedure specified by the RIA kit manufacturer (Advanced Magnetics, Cambridge, Mass.). Briefly, 100 μl of ^3 H-labeled eicosanoid and 100 μl of specific antibody are sequentially added to 100 μl of extracted pleural exudate in BGG -phosphate buffer which contains 0.01M phosphate, 0.1% bovine gamma globulin and 0.1% sodium azide at pH 7.0. Antibody-bound eicosanoid is separated from unbound eicosanoid by the addition of 750 μl of dextran (0.4%)-coated charcoal (0.4% Norit A) containing 0.1% sodium azide. The mixture is centrifuged at 2000 RPM at 5° C. for 15 minutes to pellet the charcoal and adsorbed unbound eicosanoid. Antibody-bound labeled eicosanoid is quantitated by counting in a liquid scintillation counter, and is correlated to concentration by a standard curve.
as §3

In experiment [3] the test system is TxB2. Briefly: reverse passive Arthus pleurisy assay, TxB2. Format: in vivo, rat (male Lewis). As to conditions: Rattus norvegicus, po, 5 min, read-out: ED50 TxB2. The procedure: as §1, §2, §4, §3
Experiment [4] deals with 6-keto-PGF1α /TxB2 (cyclooxygenase pathway). Nature of the experiment: in vivo murine zymosan peritonitis assay, 6-keto-PGF1α. Further details: species or system mouse (male CD-1). As for the experimental part: (§5) The compounds of the invention are evaluated for their ability to inhibit the lipoxygenase and/or cyclooxygenase pathways of arachidonic acid metabolism in the in vivo murine zymosan peritonitis assay.
Male CD-1 mice (8 weeks old) are placed in plastic boxes in groups of six. Animals are injected with 1 mL i.p. of either 1% zymosan in pyrogen free 0.9% saline or saline (unstimulated control). Compounds are dosed orally 1 hour prior to zymosan injection. Twenty minutes after zymosan injection, the mice are asphyxiated by CO2 inhalation and the peritoneal cavity is lavaged with 2 mL ice cold Hanks Balanced Salt Solution (HBSS) without CaCl2, MgSO4. 7H2 O and MgCl2.6H2 O. Peritoneal lavage fluid from each mouse is removed by syringe and placed in 5 mL plastic test tubes put on ice and volume is noted. Preparation of samples for evaluation by ELISA is as follows: Samples are centrifuged at 800 xg for 15 minutes; 1 mL of the supernatant is added to 8 mL ice cold methanol and kept at -70° C. overnight to precipitate protein; and samples are then centrifuged at 800 xg for 15 minutes, followed by a drying procedure in a Savant speed vac concentrator. […]
(§6) The total metabolite level in lavage fluid/mouse is calculated and the significance is determined by a one-way analysis of variance with LSD comparisons to control (p≤0.05). Drug effects are expressed as a percent change from control values.

Experiment [5] relates to Fluid Exudation. Nature of the experiment: reverse passive Arthus pleurisy assay, fluid exudation. Format: in vivo, rat (male Lewis). The settings on record: Rattus norvegicus, po, 1 hour prior to anti-BSA; standard drugs. As for the experimental part:
as §1, §2, §3

The test system of experiment [6] is LTC4 (lipoxygenase pathway). Briefly: in vivo murine zymosan peritonitis assay, LTC4. As to conditions: for ED50 LTC4: p.o., 1 hour prior to zymosan, standard drugs. On the set-up: species or system mouse (male CD-1). The procedure: as §5
Male CD-1 mice (8 weeks old) are placed in plastic boxes in groups of six. Animals are injected with 1 mL i.p. of either 1% zymosan in pyrogen free 0.9% saline or saline (unstimulated control). Compounds are dosed orally 1 hour prior to zymosan injection. Twenty minutes after zymosan injection, the mice are asphyxiated by CO2 inhalation and the peritoneal cavity is lavaged with 2 mL ice cold Hanks Balanced Salt Solution (HBSS) without CaCl2, MgSO4. 7H2 O and MgCl2.6H2 O. Peritoneal lavage fluid from each mouse is removed by syringe and placed in 5 mL plastic test tubes put on ice and volume is noted. Preparation of samples for evaluation by ELISA is as follows: Samples are centrifuged at 800 xg for 15 minutes; 1 mL of the supernatant is added to 8 mL ice cold methanol and kept at -70° C. overnight to precipitate protein; and samples are then centrifuged at 800 xg for 15 minutes, followed by a drying procedure in a Savant speed vac concentrator. The samples are reconstituted with 1 mL ice cold ELISA buffer and stored at -70° C. until assayed. The assay for eicosanoids (LTC4 and 6-keto-PGF1α) is performed according to conventional ELISA procedures.
Compounds to be tested orally are suspended in 0.5% Tween 80. Compounds to be tested intraperitoneally are suspended in 0.5% methylcellulose in 0.9% saline.
as §6

In experiment [7] the test system is LTB4 synthesis by rat glycogen-elicited polymorphonuclear leukocytes (PMN). Briefly: inhibition of LTB4 synthesis by rat glycogen-elicited polymorphonuclear leukocytes (PMN). Format: cell-based, rat (female Wistar). The settings on record: Leukocyte, at 10 μM. The text has this: This is especially true with respect to 5,12-diHETE, which is also denoted as LTB4 [see Ford-Hitchinson, J. Roy. […] Med., 74, 831 (1981)]. Compounds which inhibit the PLA2 -mediated release of arachidonic acid thereby effectively prevent the oxidation of arachidonic acid to the various leukotriene products via the lipoxygenase cascade. Accordingly, the specificity of action of PLA2 inhibitors can be determined by the activity of test compounds in this assay, which measures the ability of compounds to inhibit the synthesis of LTB4 by rat glycogen-elicited polymorphonuclear leukocytes (PMN) in the presence of exogenous substrate.
The assay is carried out as follows:
Rat polymorphonuclear leukocytes (PMNs) are obtained from female Wistar rats (150-200 g) which receive an injection of 6% glycogen (10 ml i.p.). Rats are sacrificed 18-24 hours post injection by CO2 asphyxiation and the elicited cells are harvested by peritoneal lavage using physiological saline (0.9% NaCl). The exudate is centrifuged at 400 xg for 10 minutes. The supernatant fluid is discarded and the cell pellet is resuspended to a concentration of 2.0×10^7 cells/mL in HBSS containing Ca^++ and Mg^++ and 10 μM L-cysteine.
To 1 mL aliquots of cell suspension, test drugs or vehicle are added, then preincubated at 37° C. for 10 minutes. A23187 (1 μM), [^3 H]-AA (3.0 μCi/mL) and unlabeled AA (1 μM) are then added and the samples are further incubated for 10 minutes. The reaction is terminated by centrifugation and pelleting cells. Supernatants are then analyzed by HPLC analysis on a 15 cm×4.6 mm ID supelcosil LC-18 (Supelco)(3M) column, using a two solvent system at a flow rate of 1.4 mL total flow as follows:
Gradient: (system is equilibrated with Solvent A)
Percent solvent changes are accomplished in a linear fashion.
Injections: 140 μL of each supernatant is injected directly onto column and ^3 H arachidonic acid metabolites are monitored using an on-line radioactivity detector (Ramona, IN/US, Fairfield, N.J.).
Standards: 10^4 -2.0×10^4 dpm of eicosanoids of interest are injected in 90 μL EtOH cocktail.
Results are expressed as percent inhibition at a given compound dose or as an IC50 value.

One may read the ED50 as the dose at which the effect has come halfway, by size or by number of responders. As for `NC1=NN(c2cccc(C(F)(F)F)c2)CC1` [BW755C], the ED30 in experiment [1] was found to be 28 mg/kg; in experiment [5], 14 mg/kg. For the same compound, the ED50 came to 23 mg/kg in experiment [2]; 18 mg/kg in experiment [3] (p.o., 1 hour prior to anti-BSA, standard drugs); 22 mg/kg in experiment [4] (Mus musculus, po, 20 min, 1 hour prior to zymosan, standard drugs).
Usually inhibition stands for how much of the control response was suppressed. On to `O=C(O)CCc1nc(-c2ccc(OCc3ccc4ccccc4n3)cc2)c(-c2ccccc2)o1` [Example 5, 5-Phenyl-4-[4-(2-Quinolinylmethoxy)phenyl]-2-oxazole propanoic acid], for which, in experiment [6] (10 mg/kg i.p.), the “% Inhibition LTC4” value was 86%. For the same compound, testing at 10 µM in experiment [7] gave an inhibition of 96%. Besides, the “% Inhibition 6-keto-PGF” value in experiment [4] (10 mg/kg i.p., negative values denote potentiation) is listed as -27%.
Consider `CC(C)Cc1ccc(C(C)C(=O)O)cc1` (centres unmarked) [Ibuprofen], for which the “ED50 LTC4” value in experiment [6] was “Not Active”.
Turning to `COc1ccc2c(c1)c(CC(=O)O)c(C)n2C(=O)c1ccc(Cl)cc1` [Indomethacin], the ED50 in experiment [3] was determined as 0.16 mg/kg. The “ED50 LTC4” value in experiment [6] is on record as “Not Active”.
